Drawing on doi:10.1101/2024.03.08.583891v2 (biorxiv, 2024), this text covers Emax for 49 compounds.

Each structure is given as a SMILES string.

For the first test, the target named is T1, NMDA receptor histamine site (NMDA(HA)R), native NMDAR of rat hippocampal synaptosomes (Rattus norvegicus, UniProt P35439+Q00960). Kind of test: tissue or organelle. To be noted: read-out: Intrinsec activity %.
T1 sequence (Q00960 27-1482, other chains not shown): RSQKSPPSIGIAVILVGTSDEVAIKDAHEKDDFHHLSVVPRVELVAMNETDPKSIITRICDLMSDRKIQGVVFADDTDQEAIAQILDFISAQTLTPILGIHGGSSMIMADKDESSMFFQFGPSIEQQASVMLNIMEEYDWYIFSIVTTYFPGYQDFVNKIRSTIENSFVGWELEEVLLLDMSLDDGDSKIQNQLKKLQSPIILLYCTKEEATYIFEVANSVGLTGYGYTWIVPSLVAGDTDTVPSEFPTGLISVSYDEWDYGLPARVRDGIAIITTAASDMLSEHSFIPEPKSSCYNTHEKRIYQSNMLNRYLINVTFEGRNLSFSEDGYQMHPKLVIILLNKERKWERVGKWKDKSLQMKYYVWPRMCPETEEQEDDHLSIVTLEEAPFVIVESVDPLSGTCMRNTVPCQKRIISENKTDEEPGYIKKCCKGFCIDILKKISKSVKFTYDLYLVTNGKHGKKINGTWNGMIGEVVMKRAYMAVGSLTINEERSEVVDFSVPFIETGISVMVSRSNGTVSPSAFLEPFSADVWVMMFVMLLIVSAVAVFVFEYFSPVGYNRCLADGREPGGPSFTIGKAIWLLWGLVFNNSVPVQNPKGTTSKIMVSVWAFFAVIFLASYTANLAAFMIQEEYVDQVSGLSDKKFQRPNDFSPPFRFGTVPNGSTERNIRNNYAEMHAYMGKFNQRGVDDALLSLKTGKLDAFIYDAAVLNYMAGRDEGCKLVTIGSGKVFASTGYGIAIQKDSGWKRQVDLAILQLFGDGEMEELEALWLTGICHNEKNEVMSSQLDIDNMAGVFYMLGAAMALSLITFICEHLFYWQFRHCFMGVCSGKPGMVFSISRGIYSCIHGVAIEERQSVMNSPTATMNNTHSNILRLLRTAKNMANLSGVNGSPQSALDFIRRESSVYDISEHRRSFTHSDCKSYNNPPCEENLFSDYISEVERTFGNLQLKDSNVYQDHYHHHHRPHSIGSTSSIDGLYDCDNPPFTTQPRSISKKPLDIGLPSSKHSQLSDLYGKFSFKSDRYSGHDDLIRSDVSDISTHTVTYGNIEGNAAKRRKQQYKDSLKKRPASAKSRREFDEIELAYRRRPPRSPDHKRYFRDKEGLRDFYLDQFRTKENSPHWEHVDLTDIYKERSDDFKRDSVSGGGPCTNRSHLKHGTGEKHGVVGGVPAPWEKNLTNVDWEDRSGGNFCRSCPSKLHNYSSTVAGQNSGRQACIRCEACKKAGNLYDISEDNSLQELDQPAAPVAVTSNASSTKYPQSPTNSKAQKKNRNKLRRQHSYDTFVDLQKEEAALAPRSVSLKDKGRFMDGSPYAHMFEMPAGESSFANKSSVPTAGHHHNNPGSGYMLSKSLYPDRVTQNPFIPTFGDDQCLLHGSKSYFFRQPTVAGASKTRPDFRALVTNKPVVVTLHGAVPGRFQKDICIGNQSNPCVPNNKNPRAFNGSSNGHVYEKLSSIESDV
On to `Nc1nc2ccc(CCNCC3CCCCC3)cc2s1` [Fub 266], for which the Emax was determined as 48%.

On to `Nc1nc2ccc(CCNCCc3ccccc3)cc2s1` [Fub 281], for which the Emax came to 30%.

With `Nc1nc2ccc(CCNCCCc3ccccc3)cc2s1` [Fub 292], the Emax was determined as 32%.

On to `Cc1ccc(CCNCCc2ccc3nc(N)sc3c2)cc1` [Fub 297], for which the Emax is 32%.

Regarding `COc1ccc(CCNCCc2ccc3nc(N)sc3c2)cc1` [Fub 298], the Emax was 19%.

For the compound `Nc1nc2ccc(CCNCc3ccccc3)cc2s1` [Fub 299], the Emax was 36%.

`Nc1nc2ccc(CCNCCCCCc3ccccc3)cc2s1` [Fub 306]: the Emax came to 33%.

For the compound `Nc1nc2ccc(CCNCCCCCCc3ccccc3)cc2s1` [Fub 307], the Emax is 33%.

For a further test, the target named is T1, NMDA receptor histamine site (NMDA(HA)R), native NMDAR of rat hippocampal synaptosomes. Kind of test: tissue or organelle. The following applies: read-out: Intrinsec activity %. The source holds these as a separate data set.
For the compound `CC1(C)C(C(=O)c2cn(Cc3ccc(F)cc3)c3ccccc23)C1(C)C` [Fub 144], the Emax was 35%.

For `Nc1nc(C2CCC(N)CC2)cs1` (stereo not shown) [Fub 206], the Emax was determined as 40%.

`Nc1nc(C2CCC(N)CC2)c[se]1` (stereo not shown) [Fub 210]: the Emax came to 33%.

`NCCCCc1cnc(N)s1` [Fub 218]: the Emax is 81%.

Take `Nc1nc(C2CCCC(N)C2)cs1` (stereo not shown) [Fub 235]: the Emax turned out to be 38%.

Turning to `Cc1sc(N)nc1/C=C/CN` [Fub 242], the Emax was found to be 75%.

For `NCCCCCc1cnc(N)s1` [Fub 295], the Emax was found to be 41%.

As for `NCCCCCCc1cnc(N)s1` [Fub 296], the Emax came out at 41%.

The next test shares this target. Briefly: tissue or organelle. To be noted: read-out: Intrinsec activity %. The source holds these as a separate data set.
On to `Nc1nc2ccc(CCNCCCCc3ccccc3)cc2s1` [FUBn293], for which the Emax came to 39%.

Another test shares this target. Briefly: tissue or organelle. The following applies: read-out: Intrinsec activity %. This is another data set of the same source.
For the compound `CCNCCc1ccc2nc(N)sc2c1` [Fub 275], the Emax was found to be 15%.

Regarding `CCCNCCc1ccc2nc(N)sc2c1` [Fub 276], the Emax is 15%.

Turning to `CCCCNCCc1ccc2nc(N)sc2c1` [Fub 286], the Emax was 31%.

With `CCCCCNCCc1ccc2nc(N)sc2c1` [Fub 287], the Emax stood at 30%.

On to `CCCCCCNCCc1ccc2nc(N)sc2c1` [Fub 288], for which the Emax came out at 35%.

As for `CC(C)(C)NCCc1ccc2nc(N)sc2c1` [Fub 289], the Emax was 23%.

`CCC(C)(C)NCCc1ccc2nc(N)sc2c1` [Fub 290]: the Emax is 27%.

`CCCC(C)(C)NCCc1ccc2nc(N)sc2c1` [Fub 291]: the Emax worked out at 32%.

Take `CCCCCCCNCCc1ccc2nc(N)sc2c1` [Fub 303]: the Emax turned out to be 33%.

Turning to `CCCCCCCCNCCc1ccc2nc(N)sc2c1` [Fub 304], the Emax worked out at 33%.

`CCCCCCCCCNCCc1ccc2nc(N)sc2c1` [Fub 305]: the Emax is 30%.

Take `COc1cc2c(cc1OC)CC(NCC(O)c1ccc(C)cc1)CC2` (stereo not shown) [ST 563]: the Emax stood at 50%.

As for `Clc1nc2ccc(CCNCCCCc3ccccc3)cc2s1` [ST 575], the Emax stood at 40%.

Turning to `Sc1nc2ccc(SCCNCCCCc3ccccc3)cc2s1` [ST 576], the Emax amounted to 38%.

For the compound `CCN(CCc1ccccc1)C1CCc2cc(OC)c(OC)cc2C1` (stereo not shown) [ST 577], the Emax was 25%.

For the compound `COc1ccc(C(O)CNC2CCc3cc(OC)c(OC)cc3C2)cc1` (stereo not shown) [ST 578], the Emax was 30%.

The target is the same in the next test. Kind of test: tissue or organelle. The following applies: read-out: Intrinsec activity %. This is another data set of the same source.
Take `NCc1ccc2nc(N)sc2c1` [Fub 223]: the Emax is 34%.

`NCCc1ccc2nc(N)sc2c1` [Fub 247]: the Emax amounted to 48%.

Take `NCCc1ccc2nc(N)[se]c2c1` [Fub 300]: the Emax was found to be 45%.

The target is the same in another test. Briefly: tissue or organelle. To be noted: read-out: Intrinsec activity %. This is another data set of the same source.
For the compound `Cc1nc(N)sc1CCCCN` [Fub 217], the Emax was determined as 52%.

Take `Cc1nc(N)sc1CCCCCN` [Fub 238]: the Emax was determined as 50%.

On to `CCc1nc(N)sc1CCN` [Fub 240], for which the Emax was determined as 82%.

For the compound `CCc1nc(N)sc1CCCN` [Fub 301], the Emax was found to be 61%.

Take `CCc1nc(N)sc1CCCCN` [Fub 309]: the Emax was found to be 40%.

Another test has the same target. Kind of test: tissue or organelle. To be noted: read-out: Intrinsec activity %. This is another data set of the same source.
For `NCCCCCc1csc(N)n1` [Fub 216], the Emax was 20%.

As for `NCCCCCCc1csc(N)n1` [Fub 239], the Emax was found to be 23%.

In the case of `Cc1sc(N)nc1CCCN` [Fub 241], the Emax is 53%.

With `Cc1sc(N)nc1CCCCN` [Fub 302], the Emax was 29%.

For a further test the target is unchanged. Briefly: tissue or organelle. To be noted: read-out: Intrinsec activity %. This is another data set of the same source.
For `CCCNC1CCc2ncsc2C1` (stereo not shown) [ST 581], the Emax worked out at 50%.

As to `COc1cc2c(cc1OC)CC(NCC(O)c1ccc(C(F)(F)F)cc1)CC2` (stereo not shown) [ST 590], the Emax came out at 30%.

In the case of `CCN(CC(O)c1ccc(C(F)(F)F)cc1)C1CCc2cc(OC)c(OC)cc2C1` (stereo not shown) [ST 592], the Emax stood at 30%.

On to `COc1cc2c(cc1OC)CC(NCC(O)c1ccc(F)cc1)CC2` (stereo not shown) [ST 593], for which the Emax came out at 25%.
